From ChEMBL document CHEMBL6096628, “Discovery of a Highly Potent and Selective BRD9 PROTAC Degrader Based on E3 Binder Investigation for the Treatment of Hematological Tumors” (J Med Chem, 2024)
Active and inactive are the calls of the source. The rule behind the calls is not given here.

Experiments:
[1] = Cytotoxicity against PBMC cells (unknown origin) assessed as inhibition of cell growth at 5000 nM incubated for 7 days by MTS reagent based assay; type: toxicity; conditions: 168 h, 5 µM, time 7 day
[2] = target: T1, Protein cereblon/Bromodomain-containing protein 9 (Homo sapiens, UniProt Q9H8M2+Q96SW2); experiment: PROTAC activity at CRBN/BRD9 in human MV4-11 cells assessed as induction of BRD9 degradation at 1 nM by Western blot analysis relative to control; type: cell-based
[3] = target: T1, Protein cereblon/Bromodomain-containing protein 9; experiment: PROTAC activity at CRBN/BRD9 in human MV4-11 cells assessed as induction of BRD9 degradation at 100 nM by Western blot analysis relative to control; type: cell-based
MV4-11 [4] = experiment: Antiproliferative activity against human MV4-11 cells assessed as inhibition of cell growth incubated for 7 days by MTS reagent based assay; type: functional; conditions: MV4-11, 168 h
MV4-11 [5] = experiment: Antiproliferative activity against CRBN knockout human MV4-11 cells assessed as inhibition of cell growth incubated for 7 days by MTS reagent based assay; type: functional; conditions: MV4-11, 168 h
[6] = target: T1, Protein cereblon/Bromodomain-containing protein 9; experiment: PROTAC activity at CRBN/BRD9 in human MV4-11 cells assessed as induction of BRD9 degradation by measuring maximal efficacy by Western blot analysis relative to control; type: cell-based
[7] = target: T1, Protein cereblon/Bromodomain-containing protein 9; experiment: PROTAC activity at CRBN/BRD9 in human MV4-11 cells assessed as induction of BRD9 degradation at 0.33 nM measured within 2 hrs by Western blot analysis; type: cell-based
MV4-11 [8] = experiment: Induction of GSPT1 degradation in human MV4-11 cells at 0.1 to 100 nM by Western blotting analysis; type: cell-based; conditions: dose 0.1-100 nM
MV4-11 [9] = experiment: Induction of IKZF1 degradation in human MV4-11 cells at 1 to 100 nM by Western blot analysis; type: cell-based; conditions: dose 1-100 nM
MV4-11 [10] = experiment: Downregulation of BRD9 protein expression in human MV4-11 cells by proteomic analysis; type: functional, cell-based
MV4-11 [11] = experiment: Downregulation of CHEK2 protein expression in human MV4-11 cells by proteomic analysis; type: functional, cell-based
MV4-11 [12] = experiment: Downregulation of KHDC4 protein expression in human MV4-11 cells by proteomic analysis; type: functional, cell-based
MV4-11 [13] = experiment: Downregulation of CELF1 protein expression in human MV4-11 cells by proteomic analysis; type: functional, cell-based
MV4-11 [14] = experiment: Downregulation of TTK protein expression in human MV4-11 cells by proteomic analysis; type: functional, cell-based
MV4-11 [15] = experiment: Cell cycle arrest in human MV4-11 cells assessed as accumulation of cells at G1 phase at 0.01 to 10 nM incubated for 24 hrs by PI staining based flow cytometric analysis; type: functional; conditions: dose 0.01-10 nM
MV4-11 [16] = experiment: Induction of apoptosis in human MV4-11 cells assessed as viable cells at 0.01 nM incubated for 48 hrs by Annexin V-FITC/PI staining based flow cytometric analysis (reference value: 94.80 %); type: functional; conditions: read-out: Activity
MV4-11 [17] = experiment: Induction of apoptosis in human MV4-11 cells assessed as early apoptotic cells at 0.1 nM incubated for 48 hrs by Annexin V-FITC/PI staining based flow cytometric analysis (reference value: 4.22 %); type: functional
MV4-11 [18] = experiment: Induction of apoptosis in human MV4-11 cells assessed as necrotic cells at 0.1 nM incubated for 48 hrs by Annexin V-FITC/PI staining based flow cytometric analysis (reference value: 0.07 %); type: functional
MV4-11 [19] = experiment: Induction of apoptosis in human MV4-11 cells assessed as early apoptotic cells at 1 nM incubated for 48 hrs by Annexin V-FITC/PI staining based flow cytometric analysis (reference value: 4.22 %); type: functional
MV4-11 [20] = experiment: Induction of apoptosis in human MV4-11 cells assessed as late apoptotic cells at 1 nM incubated for 48 hrs by Annexin V-FITC/PI staining based flow cytometric analysis (reference value: 0.91 %); type: functional
MV4-11 [21] = experiment: Induction of apoptosis in human MV4-11 cells assessed as late apoptotic cells at 10 nM incubated for 48 hrs by Annexin V-FITC/PI staining based flow cytometric analysis (reference value: 0.91 %); type: functional
MOLM-13 = experiment: Antiproliferative activity against human MOLM-13 cells assessed as inhibition of cell growth incubated for 7 days by MTS reagent based assay; type: functional; conditions: MOLM-13, 168 h
U-937 = experiment: Antiproliferative activity against human U-937 cells assessed as inhibition of cell growth incubated for 7 days by MTS reagent based assay; type: functional; conditions: U-937, 168 h
SU-DHL-2 = experiment: Antiproliferative activity against human SU-DHL-2 cells assessed as inhibition of cell growth incubated for 7 days by MTS reagent based assay; type: functional; conditions: SU-DHL-2, 168 h
[22] = AUC (0 to t) in ICR mouse at 20 mg/kg, IG administered via gavage and measured after 24 hrs by LC-MS analysis; type: ADME, organism-based; conditions: in vivo, po
[23] = Toxicity in Balb/c nude mouse xenografted with human MV4-11 cells assessed as behavioral abnormalities at 20 mg/kg, ip administered once a day for 20 days; type: organism-based; conditions: in vivo, 480 h, time 20 day
MV4-11 [24] = experiment: Antitumor activity against human MV4-11 cells xenografted in Balb/c nude mouse assessed as relative tumor volume at 20 mg/kg, ip administered once daily for 20 days (reference value: 7.85 +/- 3.69); type: functional; conditions: time 20 day
MV4-11 [25] = experiment: Antitumor activity against human MV4-11 cells xenografted in Balb/c nude mouse assessed as tumor growth inhibition at 20 mg/kg, ip administered once daily for 20 days relative to control; type: functional; conditions: MV4-11, 480 h, time 20 day, read-out: TGI
Mus musculus [26] = experiment: Upregulation of C-myc expression in Balb/c nude mouse tumor xenografted with human MV4-11 cells at 20 mg/kg, ip administered once daily for 20 days by Western blot analysis; type: functional, organism-based; conditions: time 20.0 day
Mus musculus [27] = experiment: Upregulation of BRD4 expression in Balb/c nude mouse tumor xenografted with human MV4-11 cells at 20 mg/kg, ip administered once daily for 20 days by Western blot analysis; type: functional, organism-based; conditions: time 20.0 day
[28] = Toxicity in Balb/c nude mouse xenografted with human OCI-Ly10 cells assessed as effect on body weight at 30 mg/kg, po administered once daily for 18 days; type: organism-based; conditions: in vivo, 432 h, time 18 day
[29] = Toxicity in Balb/c nude mouse xenografted with human OCI-Ly10 cells assessed as mortality at 30 mg/kg, po administered once daily for 18 days; type: organism-based; conditions: in vivo, 432 h, time 18 day
OCI-Ly10 = experiment: Antitumor activity against human OCI-Ly10 cells xenografted in Balb/c nude mouse assessed as tumor volume at 30 mg/kg, po administered once daily for 18 days (reference value: 561 +/- 370 mm^3); type: functional; conditions: time 18 day
MV4-11 [30] = experiment: Downregulation of AXIN2 expression level in human MV4-11 cells at 0.1 to 10 nM measured after 24 to 48 hrs by Western blot analysis; type: functional, cell-based; conditions: dose 0.1-10 nM, time 24-48 hrs
MV4-11 [31] = experiment: Upregulation of C-myc mRNA expression level in human MV4-11 cells at 0.1 to 10 nM measured after 24 to 48 hrs by qPCR analysis; type: functional, cell-based; conditions: dose 0.1-10 nM, time 24-48 hrs
MV4-11 [32] = experiment: Downregulation of beta-catenin mRNA expression level in human MV4-11 cells at 0.1 to 10 nM measured after 24 to 48 hrs by Western blot analysis; type: functional, cell-based; conditions: dose 0.1-10 nM, time 24-48 hrs

T1 sequence (Q96SW2 whole entry, looked up): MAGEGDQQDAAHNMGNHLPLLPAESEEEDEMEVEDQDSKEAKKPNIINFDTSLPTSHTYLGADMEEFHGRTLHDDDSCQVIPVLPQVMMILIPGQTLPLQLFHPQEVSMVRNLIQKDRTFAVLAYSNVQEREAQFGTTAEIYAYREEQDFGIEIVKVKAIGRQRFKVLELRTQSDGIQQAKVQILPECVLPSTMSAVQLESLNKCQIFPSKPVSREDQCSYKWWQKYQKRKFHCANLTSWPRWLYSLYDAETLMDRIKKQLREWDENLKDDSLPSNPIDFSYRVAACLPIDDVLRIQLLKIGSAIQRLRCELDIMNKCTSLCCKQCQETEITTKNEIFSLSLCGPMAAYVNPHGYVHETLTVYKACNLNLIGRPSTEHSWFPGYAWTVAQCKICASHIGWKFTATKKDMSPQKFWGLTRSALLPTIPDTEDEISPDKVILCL
T1 sequence (Q9H8M2 whole entry, looked up): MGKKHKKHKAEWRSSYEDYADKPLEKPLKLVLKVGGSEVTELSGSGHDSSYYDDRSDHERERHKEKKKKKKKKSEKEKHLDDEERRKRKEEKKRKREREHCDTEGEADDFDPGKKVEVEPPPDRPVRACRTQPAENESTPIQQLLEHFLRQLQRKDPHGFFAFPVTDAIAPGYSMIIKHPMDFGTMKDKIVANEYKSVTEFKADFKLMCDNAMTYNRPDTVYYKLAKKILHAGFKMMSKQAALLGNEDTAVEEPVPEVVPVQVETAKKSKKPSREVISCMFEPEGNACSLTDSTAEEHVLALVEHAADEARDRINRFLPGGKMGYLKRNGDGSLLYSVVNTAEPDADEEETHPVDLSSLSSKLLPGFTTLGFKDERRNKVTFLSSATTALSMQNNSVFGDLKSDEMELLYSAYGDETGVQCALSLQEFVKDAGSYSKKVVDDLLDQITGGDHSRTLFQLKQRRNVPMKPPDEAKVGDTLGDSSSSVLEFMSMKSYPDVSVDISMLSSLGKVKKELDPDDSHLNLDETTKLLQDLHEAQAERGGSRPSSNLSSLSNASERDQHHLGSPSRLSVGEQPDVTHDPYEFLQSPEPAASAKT

COc1cc(-c2cn(C)c(=O)c3ccccc23)cc(OC)c1CN1CCC(CN2CCC(c3ccc4c5c(cccc35)C(=O)N4C3CCC(=O)NC3=O)CC2)CC1 (stereo unspecified)
Activity [1]: Toxic | Activity [2]: 92.5% | Activity [3]: 95% | IC50 (MV4-11 [4]): 0.27 nM | IC50 (MV4-11 [5]): > 5000 nM | Emax [6]: 97% | Activity [7]: Active | Activity (MV4-11 [8]): inactive | Activity (MV4-11 [9]): Active; Moderate Degradation Observed | Activity (MV4-11 [10]): Active | Activity (MV4-11 [11]): Active | Activity (MV4-11 [12]): Active | Activity (MV4-11 [13]): Active | Activity (MV4-11 [14]): Active | Activity (MV4-11 [15]): Active | viability at 10 pM (MV4-11 [16]): 92% | Activity (MV4-11 [17]): 9.2% | Activity (MV4-11 [18]): 0.03% | Activity (MV4-11 [19]): 13.79% | Activity (MV4-11 [20]): 5.74% | Activity (MV4-11 [21]): 8.01% | IC50 (MOLM-13): 0.37 nM | IC50 (U-937): 1060 nM | IC50 (SU-DHL-2): 38.6 nM | AUC(0-t) at 24 h [22]: 1300 ng·h/mL | Activity [23]: Non-toxic | Activity (MV4-11 [24]): 4.99 | inhibition in vivo at 20 mg/kg (MV4-11 [25]): 30.9% | Activity (Mus musculus [26]): Active | Activity (Mus musculus [27]): Active | Activity [28]: Non-toxic | Activity [29]: Non-toxic | Activity (OCI-Ly10): 309 mm3 | Activity (MV4-11 [30]): Active | Activity (MV4-11 [31]): Active | Activity (MV4-11 [32]): Active
